Peptide text beside a SMILES is read from it. * marks the point of attachment. X2 = Cc1ccccc1NC(=O)Nc1ccc(CN*)cc1; PhAc = O=C(Cc1ccccc1)*; Bz = O=C(c1ccccc1)*
Target: T1, VLA4 (Homo sapiens, UniProt P05556+P13612)
T1 construct: endogenous in cells; host or cells: Ramos cells
Assay: Inhibition of VLA4-dependent adhesion to BSA-CS1
Format: cell-based
Settings: binding of BCECF-labelled Ramos cells to BSA-CS1 coated wells, 2 mM MnCl2; read-out: IC50
Description: For example, the cell adhesion inhibitory activity of these compounds may be measured by determining the concentration of inhibitor required to block the binding of VLA-4-expressing cells to fibronectin- or CS1-coated plates. In this assay microtiter wells are coated with either fibronectin (containing the CS-1 sequence) or CS-1. If CS-1 is used, it must be conjugated to a carrier protein, such as bovine serum albumin, in order to bind to the wells. Once the wells are coated, varying concentrations of the test compound are then added together with appropriately labelled, VLA-4-expressing cells. Alternatively, the test compound may be added first and allowed to incubate with the coated wells prior to the addition of the cells. The cells are allowed to incubate in the wells for at least 30 minutes. Following incubation, the wells are emptied and washed. Inhibition of binding is measured by quantitating the fluorescence or radioactivity bound to the plate for each of the various concentrations of test compound, as well as for controls containing no test compound.
VLA-4-expressing cells that may be utilized in this assay include Ramos cells, Jurkat cells, A375 melanoma cells, as well as human peripheral blood lymophocytes (PBLs). The cells used in this assay may be fluorescently or radioactively labelled.
This assay was used to assess the potency of VLA4-directed inhibitory compounds of this invention.
We dissolved BSA-SMCC (Pierce Chemical, Rockford, Ill.; Catalog #77115) in H2O at a concentration of 10 mg/mL. [SEQ ID NO:4]: […](“Cys-Tyr-CS1 peptide”), which we synthesized by conventional solid phase chemistry and purified by HPLC, was dissolved in 10 mM HEPES pH 5, 50 mM NaCl and 0.1 mM EDTA also at a concentration of 10 mg/mL. We then mixed 500 μL of BSA-SMCC, 250 μL of Cys-Tyr-CS1 peptide and 75 μL of 1 mM HEPES pH 7.5 and allowed the conjugation reaction to proceed for 30 minutes. We stopped the reaction by adding 1 μL of beta-mercaptoethanol. Samples were analyzed for cross-linking by SDS-PAGE.
We coated the wells of a Linbro titertek polystyrene 96-well flat bottom plate (Flow Laboratories, Maclean, Va.; catalog #76-231-05) with 100 μL of the above-described BSA-CS1 solution diluted to 1 μg/mL in 0.05 M NaHCO3 (15 mM NaHCO3, 35 mM Na2CO3) pH 9.2. Some wells were not coated with CS1 in order to assess non-specific cell binding (NSB). The plate was then incubated overnight at 4° C.
Following this incubation, the contents of the wells were removed by inverting and blotting the plate. All of the wells were then blocked with 100 μL of 1% BSA in PBS, 0.02% NaN3, for a minimum of one hour at room temperature.
Ramos cells are grown, maintained and labelled in RPMI 1640 culture medium containing 1% BSA. Just prior to running the assay, we added 2′,7′-bis-(2-carboxyethyl)-5 (and -6) carboxyfluorescein acetoxymethyl ester (“BCECF-AM”; Molecular Probes Inc., Eugene, Oreg.; catalog #B-1150) to a final concentration of 2 μM to a culture of Ramos cells (4×10^6 cells/mL). We incubated the cells for 20 minutes at 37° C.
Following labelling, the cells were washed twice in assay buffer (24 mM TRIS, 137 mM NaCl, 2.7 mM KCl, pH 7.4, containing 0.1% BSA and 2 mM glucose) to remove any cations originating from the culture medium. The cells were then resuspended in assay buffer to 4×10^6 cells/mL and 2 mM MnCl2 was added to upregulate VLA4 on the surface of the cells.
Immediately prior to running the assay, we removed the BSA blocking solution from the 96-well plates and washed the wells with 100 μL of assay buffer. We then added to each well 25 μL of test cell adhesion inhibitory compound at 2× the final concentration and 25 μL of the labelled Ramos cells. […] Each concentration of compound was tested in triplicate. The compound and cells are allowed to incubate for 30 minutes at room temperature.

T1 sequence (P13612 34-1032): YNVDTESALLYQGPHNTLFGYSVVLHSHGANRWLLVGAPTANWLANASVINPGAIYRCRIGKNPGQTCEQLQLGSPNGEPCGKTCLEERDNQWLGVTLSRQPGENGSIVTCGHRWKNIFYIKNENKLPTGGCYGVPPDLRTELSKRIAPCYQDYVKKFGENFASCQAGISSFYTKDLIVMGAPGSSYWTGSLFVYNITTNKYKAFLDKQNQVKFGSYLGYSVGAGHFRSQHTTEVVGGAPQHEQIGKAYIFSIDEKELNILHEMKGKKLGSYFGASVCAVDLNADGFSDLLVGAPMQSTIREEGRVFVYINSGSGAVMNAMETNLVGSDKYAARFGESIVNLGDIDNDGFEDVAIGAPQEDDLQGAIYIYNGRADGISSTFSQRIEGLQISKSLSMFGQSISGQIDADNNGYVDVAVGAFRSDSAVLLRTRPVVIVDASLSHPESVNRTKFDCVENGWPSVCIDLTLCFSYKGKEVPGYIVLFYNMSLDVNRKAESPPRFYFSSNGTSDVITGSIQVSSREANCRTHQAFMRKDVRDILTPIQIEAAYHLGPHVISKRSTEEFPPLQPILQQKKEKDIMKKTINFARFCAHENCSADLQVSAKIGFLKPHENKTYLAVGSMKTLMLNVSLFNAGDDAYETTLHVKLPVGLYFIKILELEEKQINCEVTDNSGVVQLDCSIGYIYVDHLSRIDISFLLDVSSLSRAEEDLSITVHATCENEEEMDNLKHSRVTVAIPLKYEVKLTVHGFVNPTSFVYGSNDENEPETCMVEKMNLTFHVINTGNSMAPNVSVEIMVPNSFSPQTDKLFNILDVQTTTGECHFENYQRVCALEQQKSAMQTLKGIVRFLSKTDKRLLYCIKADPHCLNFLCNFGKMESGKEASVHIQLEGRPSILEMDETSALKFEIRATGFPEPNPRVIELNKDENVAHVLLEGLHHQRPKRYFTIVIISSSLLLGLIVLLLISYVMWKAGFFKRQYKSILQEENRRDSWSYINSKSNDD
T1 sequence (P05556 21-798): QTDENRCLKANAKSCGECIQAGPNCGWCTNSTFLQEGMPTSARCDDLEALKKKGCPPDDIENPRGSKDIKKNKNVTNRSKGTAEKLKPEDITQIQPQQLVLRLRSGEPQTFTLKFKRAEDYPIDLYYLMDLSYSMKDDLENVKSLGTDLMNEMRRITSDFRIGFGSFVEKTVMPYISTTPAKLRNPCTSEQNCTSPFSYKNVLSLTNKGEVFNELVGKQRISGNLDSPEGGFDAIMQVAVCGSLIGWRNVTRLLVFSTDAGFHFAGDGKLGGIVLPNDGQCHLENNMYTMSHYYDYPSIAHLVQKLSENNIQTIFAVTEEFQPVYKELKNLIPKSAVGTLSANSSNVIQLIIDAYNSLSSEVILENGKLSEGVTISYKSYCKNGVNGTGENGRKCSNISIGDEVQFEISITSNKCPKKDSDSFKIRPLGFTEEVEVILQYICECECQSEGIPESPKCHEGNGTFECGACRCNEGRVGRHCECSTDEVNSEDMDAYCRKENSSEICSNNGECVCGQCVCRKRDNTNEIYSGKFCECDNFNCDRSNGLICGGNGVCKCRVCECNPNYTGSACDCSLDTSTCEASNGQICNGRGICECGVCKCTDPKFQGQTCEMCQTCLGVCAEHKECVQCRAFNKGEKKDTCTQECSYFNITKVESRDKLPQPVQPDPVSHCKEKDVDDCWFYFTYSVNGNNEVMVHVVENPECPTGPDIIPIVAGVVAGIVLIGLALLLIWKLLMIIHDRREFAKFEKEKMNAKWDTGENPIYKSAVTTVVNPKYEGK

Structure (SMILES) | IC50 [nM]
CSCC[C@H](NC(=O)[C@H](CC(=O)O)NC(=O)[C@@H](NC(=O)Cc1ccc(NC(=O)Nc2ccccc2C)cc1)[C@@H](C)O)C(N)=O [Compound 258] | < 50
CNC(=O)[C@@H](NC(=O)[C@H](CC(=O)O)NC(=O)[C@H](CC(C)C)NC(=O)Cc1ccc(NC(=O)Nc2ccccc2)cc1)C(C)C [Compound 204] | 50 to 10000
Cc1ccccc1NC(=O)Nc1ccc(CC(=O)N[C@H](C(=O)N[C@@H](CC(=O)O)C(=O)N[C@H](CC(N)=O)C(N)=O)[C@@H](C)O)cc1 [Compound 259] | < 50
CCC(C)C(NC(=O)C(CC(=O)O)NC(=O)C(CC(C)C)NC(=O)Cc1ccccc1)C(N)=O (stereo not drawn) [Compound 53] (PhAc-Leu-Asp-Ile-NH2; configuration not given here) | > 10000
Cc1ccccc1NC(=O)Nc1ccc(CC(=O)N[C@@H](CC(C)C)C(=O)N[C@@H](CC(=O)O)C(=O)N[C@H](CCC(=O)O)C(N)=O)cc1 [Compound 238] | < 50
Cc1ccccc1NC(=O)Nc1ccc(CC(=O)N[C@@H](CCC(=O)O)C(=O)N[C@@H](CC(=O)O)C(=O)N[C@H](C(N)=O)[C@@H](C)O)cc1 [Compound 268] | < 50
Cc1ccccc1NC(=O)Nc1ccc(CC(=O)N[C@@H](CCC(=O)O)C(=O)N[C@@H](CC(=O)O)C(=O)N[C@@H](CC(=O)O)C(N)=O)cc1 [Compound 263] | < 50
Cc1ccccc1NC(=O)Nc1ccc(CC(=O)N[C@@H](CCC(=O)O)C(=O)N[C@@H](CC(=O)O)C(=O)N[C@@H](CCC(=O)O)C(N)=O)cc1 [Compound 267] | < 50
CSCC[C@H](NC(=O)Cc1ccc(NC(=O)Nc2ccccc2C)cc1)C(=O)N[C@@H](CC(=O)O)C(=O)N[C@H](CC(N)=O)C(N)=O [Compound 226] | < 50
Cc1ccccc1NC(=O)Nc1ccc(CC(=O)N[C@@H](CC(C)C)C(=O)N[C@@H](CC(=O)O)C(=O)N[C@@H](CC(=O)O)C(N)=O)cc1 [Compound 230] | < 50
Cc1ccccc1NC(=O)Nc1ccc(CC(=O)N[C@H](C(=O)N[C@@H](CC(=O)O)C(=O)N[C@H](C(N)=O)[C@@H](C)O)[C@@H](C)O)cc1 [Compound 257] | < 50
Cc1ccccc1NC(=O)Nc1ccc(CC(=O)NC(CC(C)C)C(=O)NC(CC(=O)O)C(=O)NC(C(=O)O)c2ccccc2)cc1 (stereo not drawn) [Compound 207] | 50 to 10000
CC(C)C[C@H](NC(=O)[C@H](Cc1ccccc1)NC(=O)c1ccccc1)C(=O)N[C@@H](CC(=O)O)C(=O)N[C@H](C(=O)O)C(C)C [Compound 153] (Bz-FLDV-OH) | > 10000
Cc1ccccc1NC(=O)Nc1ccc(CC(=O)N2CCCC2C(=O)NC(CC(=O)O)C(=O)NC(CO)C(N)=O)cc1 (stereo not drawn) [Compound 251] | < 50

Next, values leading:

IC50 [nM] | Structure (SMILES)
> 10000 | CCC(C)C(NC(=O)C(CC(=O)O)NC(=O)C(NC(=O)C1CCCN1)C(C)C)C(=O)NCc1ccc(NC(=O)Nc2ccccc2C)cc1 (stereo not drawn) [Compound 343] (H-PVDI-X2; configuration not given here)
< 50 | Cc1ccccc1NC(=O)Nc1ccc(CC(=O)N[C@@H](CO)C(=O)N[C@@H](CC(=O)O)C(=O)N[C@H](CCC(=O)O)C(N)=O)cc1 [Compound 283]
> 10000 | Cc1ccccc1NC(=O)Nc1ccc(CC(=O)N2CCC[C@H]2C(=O)N[C@@H](CC(=O)O)C(=O)O)cc1 [Compound 342]
< 50 | Cc1ccccc1NC(=O)Nc1ccc(CC(=O)N[C@H](CC(C)C)C(=O)N[C@@H](CC(=O)O)C(=O)N[C@H](CC(C)C)C(N)=O)cc1 [Compound 289]
50 to 10000 | COC(=O)[C@@H](CC(C)C)NC(=O)[C@H](CC(=O)O)NC(=O)[C@@H]1CCCN1C(=O)Cc1ccc(NC(=O)Nc2ccccc2C)cc1 [Compound 410]
< 50 | Cc1ccccc1NC(=O)Nc1ccc(CC(=O)N[C@H](CC(C)C)C(=O)N[C@@H](CC(=O)O)C(=O)N[C@H](CCC(=O)O)C(N)=O)cc1 [Compound 294]
< 50 | Cc1ccccc1NC(=O)Nc1ccc(CC(=O)N[C@@H](CCC(N)=O)C(=O)N[C@@H](CC(=O)O)C(=O)N[C@H](CCC(=O)O)C(N)=O)cc1 [Compound 305]

From patent US6875743B1, “Cell adhesion inhibitors” (Biogen, Inc., priority 1996, dated 2005)
